The values that follow come from publication PMC11200219 (JACS Au, 2024).

In series [1] the target is T1, bovine pancreatic DNase I (Bos taurus, UniProt P00639). The following applies: cited from earlier work.
Series [2] addresses T1, bovine pancreatic DNase I. Briefly: DNase I assay. It is filed as biochemical. The following applies: in the absence of Mn007.
The conditions of series [3]: stated in the introduction without reference; cited from earlier work.

T1 sequence (P00639 23-282): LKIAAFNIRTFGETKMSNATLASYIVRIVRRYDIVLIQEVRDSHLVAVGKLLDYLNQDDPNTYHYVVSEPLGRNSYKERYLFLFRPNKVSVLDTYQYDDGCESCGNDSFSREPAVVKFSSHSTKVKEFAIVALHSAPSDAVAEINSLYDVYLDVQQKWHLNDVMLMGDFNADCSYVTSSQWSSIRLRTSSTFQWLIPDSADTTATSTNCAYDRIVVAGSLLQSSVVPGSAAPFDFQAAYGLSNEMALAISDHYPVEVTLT

As for `O=C(O)CN(CCN(CC(=O)O)CC(=O)O)CC(=O)O` [EDTA], in series [1], the “Inhibition of bovine pancreatic DNase I (reported)” value (“Inhibition” for short) is listed as “reported to inhibit”.

As to `CC(O)COC[C@H]1O[C@@H]2O[C@H]3[C@H](O)[C@@H](O)[C@@H](O[C@H]4[C@H](O)[C@@H](O)[C@@H](O[C@H]5[C@H](O)[C@@H](O)[C@@H](O[C@H]6[C@H](O)[C@@H](O)[C@@H](O[C@H]7[C@H](O)[C@@H](O)[C@@H](O[C@H]8[C@H](O)[C@@H](O)[C@@H](O[C@H]1[C@H](O)[C@H]2O)O[C@@H]8COCC(C)O)O[C@@H]7COCC(C)O)O[C@@H]6COCC(C)O)O[C@@H]5COCC(C)O)O[C@@H]4COCC(C)O)O[C@@H]3COCC(C)O` (stereo partly drawn) [HyβCD, 2-Hydroxypropyl-β-cyclodextrin], the “Effect on activity of DNase I” value in series [2] is recorded as “did not affect the activity of DNase I”. `CN(C)c1ccc(C(=C2C=CC(=[N+](C)C)C=C2)c2ccc(N(C)C)cc2)cc1` [crystal violet]: the “Inhibition” value in series [1] is recorded as “reported to inhibit”. For the same molecule, in series [3], the Cytotoxicity entry was “show cytotoxicity”.

On to actin, for which the “Inhibition” value in series [1] was “reported to inhibit”.
